Numbering of substitutions follows the chain as printed.
Legend:
Format in all cases: cell-based
Conditions in all cases: for ΔpEC50±SEM: relative to WT, n = 3 in triplicate; for ΔpEC50±SEM / Span±SEM: mean ± SEM; for Span±SEM: window between maximal response (Emax) and vehicle, n = 3
PTH1R Y191A mutant = target: T1, PTH1R Y191A mutant (Homo sapiens, UniProt Q03431, Y191A); assay: cAMP accumulation assay (GloSensor), PTH1R Y191A
T1 construct: a flag-tag was fused to the N terminal of full-length PTH1R (WT or mutant); expressed in transfected cells; host or cells: HEK293T
T1 sequence (Q03431 27-593 Y191A): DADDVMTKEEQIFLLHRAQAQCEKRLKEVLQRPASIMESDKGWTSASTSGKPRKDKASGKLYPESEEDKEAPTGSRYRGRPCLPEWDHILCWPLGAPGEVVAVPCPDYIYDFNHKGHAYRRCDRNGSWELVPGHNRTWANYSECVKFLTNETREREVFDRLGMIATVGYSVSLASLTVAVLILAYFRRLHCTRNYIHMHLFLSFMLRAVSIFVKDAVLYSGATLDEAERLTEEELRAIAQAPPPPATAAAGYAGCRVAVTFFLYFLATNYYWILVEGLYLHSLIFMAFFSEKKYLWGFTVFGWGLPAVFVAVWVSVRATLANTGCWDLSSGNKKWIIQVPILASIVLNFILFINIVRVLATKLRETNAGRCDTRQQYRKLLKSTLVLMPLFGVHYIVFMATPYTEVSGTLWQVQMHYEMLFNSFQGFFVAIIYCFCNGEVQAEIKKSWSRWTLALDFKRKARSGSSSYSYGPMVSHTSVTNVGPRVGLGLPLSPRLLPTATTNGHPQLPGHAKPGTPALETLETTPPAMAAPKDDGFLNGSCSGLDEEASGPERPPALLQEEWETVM
Procedure: (§1) Human embryonic kidney 293 T (HEK293T, ATCC: CRL-1573) cells were transfected with a plasmid mixture consisting of pcDNA3.1-flag-PTH1R (WT or mutants) and the cAMP biosensor GloSensor-22F (Promega) at a ratio of 2:1 (see Supplementary Table 7 for a list of primers used in this study). After 24 h, transfected cells were plated onto a 384-well plate, which was treated with cell adherent reagent (Applygen) in advance. After another 12 h, cells were treated with Hank’s balanced salt solution for starvation and then incubated in CO2-independent media containing 4% GloSensor cAMP Reagent (Promega) at a volume of 5 μl per well and incubated for 20 min at RT before measurements for baseline luminescence (Spark Multimode microplate reader, TECAN). Next, test ligands were added at different concentrations from 10^−6 to 10^−13 M before second measurement. Finally, data were normalized to 100% of the maximal PTH (1-34) response for WT PTH1R using a sigmoidal dose-response in GraphPad Prism.
(§2) Statistical analyses were performed on at least three individual datasets and analysed using GraphPad Prism software. Bars represent differences in the calculated agonist potency (pEC50) and maximum agonist response (Emax) for each mutant relative to the WT receptor. Data are mean± s.e.m. from at least three independent experiments, performed in triplicates. ns, not significant, ^nsP > 0.01; ^*P < 0.01; ^**P < 0.001; ^***P < 0.0001 (one-way analysis of variance (ANOVA) followed by Dunnett’s test, compared with the response of the WT). For dose-response experiments, data were normalized and analyzed using nonlinear curve fitting for the log (agonist) versus response (three parameters) curves.

PTH1R I363A mutant = target: T2, PTH1R I363A mutant (Homo sapiens, UniProt Q03431, I363A); assay: cAMP accumulation assay (GloSensor), PTH1R I363A
T2 construct: a flag-tag was fused to the N terminal of full-length PTH1R (WT or mutant); expressed in transfected cells; host or cells: HEK293T
T2 sequence (Q03431 27-593 I363A): T1 sequence (Q03431 27-593 Y191A) with A165Y, I337A
Procedure: as §1, §2

PTH1R K360A mutant = target: T3, PTH1R K360A mutant (Homo sapiens, UniProt Q03431, K360A); assay: cAMP accumulation assay (GloSensor), PTH1R K360A
T3 construct: a flag-tag was fused to the N terminal of full-length PTH1R (WT or mutant); expressed in transfected cells; host or cells: HEK293T
T3 sequence (Q03431 27-593 K360A): T1 sequence (Q03431 27-593 Y191A) with A165Y, K334A
Procedure: as §1, §2

Substance	span (from the WT) (PTH1R Y191A mutant; PTH1R Y1911.43A, replicate 1)	ΔpEC50 (from the WT) (PTH1R Y191A mutant; PTH1R Y1911.43A, replicate 1)	span (from the WT) (PTH1R Y191A mutant; PTH1R Y1911.43A, replicate 2)	ΔpEC50 (from the WT) (PTH1R Y191A mutant; PTH1R Y1911.43A, replicate 2)	span (from the WT) (PTH1R Y191A mutant; PTH1R Y1911.43A, replicate 3)	ΔpEC50 (from the WT) (PTH1R Y191A mutant; PTH1R Y1911.43A, replicate 3)	ΔpEC50±SEM (PTH1R Y191A mutant)	ΔpEC50 (from the WT) (PTH1R Y191A mutant; replicate 1)	ΔpEC50 (from the WT) (PTH1R Y191A mutant; replicate 2)	ΔpEC50 (from the WT) (PTH1R Y191A mutant; replicate 3)	Span±SEM (PTH1R Y191A mutant)	span (from the WT) (PTH1R I363A mutant; PTH1R I3635.39A, replicate 1)	ΔpEC50 (from the WT) (PTH1R I363A mutant; PTH1R I3635.39A, replicate 1)	span (from the WT) (PTH1R I363A mutant; PTH1R I3635.39A, replicate 2)	ΔpEC50 (from the WT) (PTH1R I363A mutant; PTH1R I3635.39A, replicate 2)	span (from the WT) (PTH1R I363A mutant; PTH1R I3635.39A, replicate 3)	ΔpEC50±SEM (PTH1R I363A mutant)	ΔpEC50 (from the WT) (PTH1R I363A mutant; replicate 1)	ΔpEC50 (from the WT) (PTH1R I363A mutant; replicate 2)	ΔpEC50 (from the WT) (PTH1R I363A mutant; replicate 3)	also measured
H-AVAEIQLMHQRAKWIQDARRRAFLHKLIAEIHTAEI-OH [LA-PTH, long-acting PTH analog, modified PTH/PTHrP hybrid]	133.3	-0.163	153.3	-0.013	159.2	-0.095	-0.09±0.04	-0.163	-0.013	-0.095	148.60±7.84	94.78	-0.24	139.7	-0.23	119.7	-0.05±0.19	-0.24	-0.23	0.32	Span±SEM (PTH1R I363A mutant): 118.06±12.99; span (from the WT) (PTH1R K360A mutant; PTH1R K3605.36A, replicate 1): 126.5; ΔpEC50 (from the WT) (PTH1R K360A mutant; PTH1R K3605.36A, replicate 1): 0.012; span (from the WT) (PTH1R K360A mutant; PTH1R K3605.36A, replicate 2): 121.9; ΔpEC50 (from the WT) (PTH1R K360A mutant; PTH1R K3605.36A, replicate 2): 0.001; span (from the WT) (PTH1R K360A mutant; PTH1R K3605.36A, replicate 3): 153.1; ΔpEC50 (from the WT) (PTH1R K360A mutant; PTH1R K3605.36A, replicate 3): -0.25; ΔpEC50±SEM (PTH1R K360A mutant): -0.08±0.09; ΔpEC50 (from the WT) (PTH1R K360A mutant; replicate 1): 0.012; ΔpEC50 (from the WT) (PTH1R K360A mutant; replicate 2): 0.001; ΔpEC50 (from the WT) (PTH1R K360A mutant; replicate 3): -0.25; Span±SEM (PTH1R K360A mutant): 133.83±9.72
H-AVSEHQLLHDKGKSIQDLRRRELLEKLL-{Aib}-KLHTA-NH2 [ABL, Abaloparatide, an analog of PTHrP, short-acting PTH1R agonist]	197.4	-2.59	251.3	-2.509	242	-2.365	-2.49±0.07	-2.59	-2.509	-2.365	230.23±16.63	145.9	-0.54	170	-0.46	139.9	-0.57±0.08	-0.54	-0.46	-0.722	ΔpEC50 (from the WT) (PTH1R I363A mutant; PTH1R I3635.39A, replicate 3): -0.722; Span±SEM (PTH1R I363A mutant): 151.93±9.20; span (from the WT) (PTH1R K360A mutant; PTH1R K3605.36A, replicate 1): 125.1; ΔpEC50 (from the WT) (PTH1R K360A mutant; PTH1R K3605.36A, replicate 1): -1.039; span (from the WT) (PTH1R K360A mutant; PTH1R K3605.36A, replicate 2): 150.8; ΔpEC50 (from the WT) (PTH1R K360A mutant; PTH1R K3605.36A, replicate 2): -1.216; span (from the WT) (PTH1R K360A mutant; PTH1R K3605.36A, replicate 3): 115; ΔpEC50 (from the WT) (PTH1R K360A mutant; PTH1R K3605.36A, replicate 3): -1.137; ΔpEC50±SEM (PTH1R K360A mutant): -1.13±0.05; ΔpEC50 (from the WT) (PTH1R K360A mutant; replicate 1): -1.039; ΔpEC50 (from the WT) (PTH1R K360A mutant; replicate 2): -1.216; ΔpEC50 (from the WT) (PTH1R K360A mutant; replicate 3): -1.137; Span±SEM (PTH1R K360A mutant): 130.30±10.66
H-SVSEIQLMHNLGKHLNSMERVEWLRKKLQDVHNF-OH [PTH, Teriparatide, human PTH 1-34, long-acting peptide agonist of PTH1R]	132.4	-0.995	179.6	-0.805	268.7	-0.706	-0.84±0.08	-0.995	-0.805	-0.706	164.77±14.05	93.29	-0.207	156.2	-0.352	155.7	-0.28±0.04	-0.207	-0.352	-0.276	ΔpEC50 (from the WT) (PTH1R I363A mutant; PTH1R I3635.39A, replicate 3): -0.276; Span±SEM (PTH1R I363A mutant): 180.23±7.67; span (from the WT) (PTH1R K360A mutant; PTH1R K3605.36A, replicate 1): 136.9; ΔpEC50 (from the WT) (PTH1R K360A mutant; PTH1R K3605.36A, replicate 1): 0.02; span (from the WT) (PTH1R K360A mutant; PTH1R K3605.36A, replicate 2): 137.1; ΔpEC50 (from the WT) (PTH1R K360A mutant; PTH1R K3605.36A, replicate 2): -0.139; span (from the WT) (PTH1R K360A mutant; PTH1R K3605.36A, replicate 3): 183.3; ΔpEC50 (from the WT) (PTH1R K360A mutant; PTH1R K3605.36A, replicate 3): -0.31; ΔpEC50±SEM (PTH1R K360A mutant): -0.14±0.10; ΔpEC50 (from the WT) (PTH1R K360A mutant; replicate 1): 0.02; ΔpEC50 (from the WT) (PTH1R K360A mutant; replicate 2): -0.139; ΔpEC50 (from the WT) (PTH1R K360A mutant; replicate 3): -0.31; Span±SEM (PTH1R K360A mutant): 135.06±20.89

— article PMC9586930, “Molecular insights into the distinct signaling duration for the peptide-induced PTH1R activation” (Nature Communications, 2022)
